The nature of data set [1]: Stability of soluble flavone sodium salts in bicarbonate/peroxide dentifrice. Type of data set: physicochemical. The conditions noted are these: dentifrice with sodium bicarbonate, peroxide and peroxide stabilizer, pH ~10-10.5. The protocol:
It was experimentally determined that the toothpaste formulations containing both sodium bicarbonate and sodium carbonate peroxide together with stabilizing polymer formulations had pHs of ˜10-10.5. When aglycone flavone (i.e., apigenin and luteolin) powders were added to dentifrices including sodium bicarbonate, sodium bicarbonate peroxide and a peroxide stabilizer, it was also determined that soluble flavone sodium salts were formed that were stable in these highly oxidative peroxide compositions. The presence of stable soluble alkali metal flavone salts with highly anti-oxidant and anti-inflammatory properties in an emulsion formulation was totally unanticipated since aglycone flavones are prone to oxidative decomposition.

Data set [2] is described as follows: Solubility in PS80 via the thermal processing method (polyphenol/surfactant concentrate). To be noted: for PS80 Solution Temp.: temperature of complete solubilization in PS80; for solubility: 20 °C, organic solvent or mixture. On the procedure: The molar ratio of active agent (polyphenol) to solubilizing agent (surfactant) is typically 1:2 to 1:5, and at times much greater, e.g. 1:2 to 1:20 depending on the active agent/surfactant combination.
Apigenin/Polysorbate 80 (PS80) formulations can be made as follows: • Apigenin powder and PS80 are mixed in the ratio from about 5 to 10 wt. % of apigenin to 95 to 90 wt. % PS80.
All solubility tests were conducted with 20 ml of PS80 contained within 80 ml Pyrex glass beakers.

Data set [3] is described as follows: EGCG retention in saliva after brushing with alkaline EGCG toothpaste (colour on alkalizing). Type of data set: in vivo, human. To be noted: PeroxiCare toothpaste with 0.1 wt. % EGCG and 0.1 wt. % ascorbic acid, saliva after brushing and rinsing.
Description: A saliva sample with an EGCG containing alkaline toothpaste was obtained (1) before brushing and (2) 1 minute after brushing immediately after rinsing. The subject brushed for 2 minutes using the sulcular brushing technique with ˜1.8 gm toothpaste on a toothbrush. […] A 5 ml sample of saliva was collected 10 minutes prior to brushing. Tooth brushing was conducted for 2 minutes with 1.8 gm of toothpaste applied to the brush. One minute after brushing, the oral cavity was rinsed with 50 ml of water. Following rinsing, about 8 ml of saliva was collected. The pH of the saliva was measured. In addition, the saliva samples were further made alkaline with the addition of NaOH crystals and the color of the resulting sample noted.
Data set [4] in a line: Solubilization in Listerine mouth rinse via sodium salt and pH adjustment. Format: physicochemical. On the procedure:
100 grams of the Listerine® Resveratrol Containing Mouth Rinse formulation was prepared as follows: • 1. 98.4 grams of the Listerine® caramel colored mouth rinse was added to a 300 ml Pyrex glass beaker. […] About 0.2 grams of fine NaOH crystals were added to the mixture from Step 2 and thoroughly mixed. A uniformly caramel colored blend resulted with a measured pH of ˜10. […] The pH the mixture from Step 3 was adjusted to a pH 6.5 by the addition of about 0.2 grams of citric acid crystals. […] • 1. 98.6 grams of the Listerine® caramel colored mouthrinse was added to a 300 ml Pyrex glass beaker. […] About 0.2 grams of fine NaOH crystals were added to the mixture from Step 2 and thoroughly mixed. A uniformly caramel colored blend resulted with a measured pH of ˜10. […] The pH the mixture from Step 2 was adjusted to a pH 8 by the addition of about 0.2 grams of citric acid crystals.

The nature of data set [5]: pH required for a stable aqueous microemulsion with nonionic surfactants. Format: physicochemical. The conditions noted are these: nonionic surfactants Polysorbate 80 and Cremophor RH40. An excerpt:
In one embodiment, a flavonoid/polyphenol microemulsion can be made as follows: • The mixing of a flavonoid/polyphenol with an alkali metal component (e.g., alkali metal hydroxide(s) and/or alkaline metal salt(s)) to form an alkali metal flavonoid/polyphenol salt within an aqueous solution. • Adding a surfactant in the ratio from about 5 to 20 wt. % of the flavonoid/polyphenol to 95 to 80 wt. % of a surfactant; preferable a nonionic surfactant. • This mixture is thoroughly stirred to form a uniform clear solution. • Adjusting (e.g., acidifying) the alkali metal flavonoid/polyphenol salt with an agent (e.g., an acidic agent such as acetic acid and/or hydrochloric acid) to a pH level required to form a clear and stable microemulsion.
Stable microemulsions with apigenin and the nonionic surfactants, Polysorbate 80 and Cremophor RH40, were achieved provided a pH level of 8.0 to 8.5 was maintained. For luteolin, it as determined that a pH of 7 was required to maintain a stable aqueous microemulsion; and for resveratrol, a pH of >4.5 to 7.5.

≈ marks a conversion by molar mass, not a printed value.

The solubility is the dissolved amount per volume that the medium holds.

With `O=c1cc(-c2ccc(O)cc2)oc2cc(O)cc(O)c12` [Apigenin, 4′,5,7,-trihydroxyflavone], in data set [1], the “stability of soluble flavone sodium salt in oxidative peroxide composition” value is listed as “stable”. Also, in data set [2] (5.0 wt. % in PS80, heated approaching 300 degree C, cooled to ambient), the “concentration of stable concentrate in PS80” value stood at 50000 µg/mL.

For the compound `O.Oc1cc(O)c2c(c1)O[C@H](c1ccc(O)c(O)c1)[C@@H](O)C2` [Catechin], the “PS80 Solubility” value in data set [2] (at 20° C., 20 ml PS80, not the maximum solubility levels in PS80) was 50 mg/mL. Also, in data set [2], the “PS80 Solution Temp.” value was about 210 °C. In addition, in the data set “Solubility in water” (at 20° C.), the “Water Solubility” value was about 5 mg/mL.

Take `O=c1cc(-c2ccccc2)oc2cc(O)cc(O)c12` [Chrysin]: the solubility in data set [2] (Polysorbate 80 (PS80)) turned out to be 50 mg/mL; in “Solubility in water” (water, 20 °C), 0.08 mg/mL (≈ 315 µM). The “PS80 Solution Temp.” value in data set [2] is about 140 °C.

On to `O=C(O[C@@H]1Cc2c(O)cc(O)cc2O[C@@H]1c1cc(O)c(O)c(O)c1)c1cc(O)c(O)c(O)c1` [Epigallocatechin Gallate (EGCG), Epigallocatechin gallate], for which the “retention in saliva (red/brown color on alkalizing saliva to pH ~10.5)” value in data set [3] was “retained”. The solubility is 50 mg/mL in data set [2] (Polysorbate 80 (PS80)) and about 25 mg/mL (≈ 54500 µM) in “Solubility in water” (water, 20 °C). In data set [2], the “PS80 Solution Temp.” value is about 150 °C.

`O=c1c(-c2ccc(O)cc2)coc2cc(O)cc(O)c12` [Genistein]: the solubility in data set [2] is 50 mg/mL; in “Solubility in water” (20 °C, water), 0.12 mg/mL (≈ 444 µM). The “PS80 Solution Temp.” value in data set [2] is about 220 °C.

For the compound `O=c1cc(-c2ccc(O)c(O)c2)oc2cc(O)cc(O)c12` [Luteolin, 3′,4′,5,7-tetrahydroxyflavone], in data set [1], the “stability of soluble flavone sodium salt in oxidative peroxide composition” value is recorded as “stable”. Besides, the “concentration in transparent solution” value in data set [4] (NaOH to pH ~10, citric acid to pH 8) was 1500 µg/mL. The “pH level for a stable aqueous microemulsion” value in data set [5] stood at 7.

For `O=C1C[C@@H](c2ccc(O)cc2)Oc2cc(O)cc(O)c21` [Naringenin], the solubility amounted to 50 mg/mL in data set [2] (Polysorbate 80 (PS80)) and 0.04 mg/mL (≈ 147 µM) in “Solubility in water” (water, 20 °C). In addition, the “PS80 Solution Temp.” value in data set [2] is about 280 °C.

Regarding `Oc1ccc(C=Cc2cc(O)cc(O)c2)cc1` [Resveratrol, resveratrol], the “concentration in transparent solution” value in data set [4] (NaOH to pH ~10, citric acid to pH 6.5) came out at 1200 µg/mL.

(Values after patent US20140314686A1, “POLYPHENOL/FLAVONOID COMPOSITIONS AND METHODS OF FORMULATING ORAL HYGIENIC PRODUCTS” (API Genesis, LLC, priority 2013, published 2014).)
